Assay [1] has as its system Streptococcus pneumoniae. The assay can be described thus: Antimicrobial activity against penicillin sensitive Streptococcus pneumoniae isolate 8865 by broth microdilution method. It is filed as functional. Background: In broth dilution the organism is exposed to a series of concentrations in liquid medium.
Assay [2] relates to Streptococcus pneumoniae. Put plainly: Antimicrobial activity against penicillin intermediate resistant Streptococcus pneumoniae isolate 8882 harboring PBP2b 443SSNA mutant by broth microdilution method. The format is functional.
In assay [3] the test system is Streptococcus pneumoniae. Put plainly: Antimicrobial activity against penicillin intermediate resistant Streptococcus pneumoniae isolate 8009 harboring PBP2b 443SSNA mutant by broth microdilution method. It is filed as functional.
Assay [4] has as its system Streptococcus pneumoniae. The assay can be described thus: Antimicrobial activity against penicillin resistant Streptococcus pneumoniae isolate 8819 harboring PBP2b 443SSNA mutant by broth microdilution method. The format is functional.
In assay [5] the target is T1, Penicillin-binding protein 2B (Streptococcus pneumoniae serotype 4 (strain ATCC BAA-334 / TIGR4), UniProt P0A3M5).
T1 sequence (P0A3M5 whole entry): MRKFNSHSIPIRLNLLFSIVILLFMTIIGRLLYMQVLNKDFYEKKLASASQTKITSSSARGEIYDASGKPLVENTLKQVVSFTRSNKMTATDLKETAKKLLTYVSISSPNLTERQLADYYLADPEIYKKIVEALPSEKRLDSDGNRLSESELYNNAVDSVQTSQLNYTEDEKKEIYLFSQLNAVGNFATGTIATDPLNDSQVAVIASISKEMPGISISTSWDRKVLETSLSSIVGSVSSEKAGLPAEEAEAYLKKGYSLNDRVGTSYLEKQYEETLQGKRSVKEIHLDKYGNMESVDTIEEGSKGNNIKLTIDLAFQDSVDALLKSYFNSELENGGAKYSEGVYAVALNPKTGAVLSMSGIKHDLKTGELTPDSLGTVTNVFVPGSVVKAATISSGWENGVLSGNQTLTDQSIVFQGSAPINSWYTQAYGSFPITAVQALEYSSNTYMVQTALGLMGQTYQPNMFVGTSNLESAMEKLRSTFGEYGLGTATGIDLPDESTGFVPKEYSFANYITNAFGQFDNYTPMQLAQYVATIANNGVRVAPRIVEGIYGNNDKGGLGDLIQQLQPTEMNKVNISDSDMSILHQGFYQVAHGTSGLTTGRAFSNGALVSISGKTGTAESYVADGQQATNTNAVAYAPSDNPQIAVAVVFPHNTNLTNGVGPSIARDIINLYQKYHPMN
Put plainly: Inhibition of Bocillin FL binding to Streptococcus pneumoniae isolate 8865 PBP2b.

In assay [6] the target is T2, Penicillin-binding protein 2B (Streptococcus pneumoniae (strain ATCC BAA-255 / R6), UniProt P0A3M6, T446A). The assay can be described thus: Inhibition of Streptococcus pneumoniae isolate 8882 Bocillin FL binding to PBP2b 443SSNA mutant.
T2 sequence (P0A3M6 whole entry T446A): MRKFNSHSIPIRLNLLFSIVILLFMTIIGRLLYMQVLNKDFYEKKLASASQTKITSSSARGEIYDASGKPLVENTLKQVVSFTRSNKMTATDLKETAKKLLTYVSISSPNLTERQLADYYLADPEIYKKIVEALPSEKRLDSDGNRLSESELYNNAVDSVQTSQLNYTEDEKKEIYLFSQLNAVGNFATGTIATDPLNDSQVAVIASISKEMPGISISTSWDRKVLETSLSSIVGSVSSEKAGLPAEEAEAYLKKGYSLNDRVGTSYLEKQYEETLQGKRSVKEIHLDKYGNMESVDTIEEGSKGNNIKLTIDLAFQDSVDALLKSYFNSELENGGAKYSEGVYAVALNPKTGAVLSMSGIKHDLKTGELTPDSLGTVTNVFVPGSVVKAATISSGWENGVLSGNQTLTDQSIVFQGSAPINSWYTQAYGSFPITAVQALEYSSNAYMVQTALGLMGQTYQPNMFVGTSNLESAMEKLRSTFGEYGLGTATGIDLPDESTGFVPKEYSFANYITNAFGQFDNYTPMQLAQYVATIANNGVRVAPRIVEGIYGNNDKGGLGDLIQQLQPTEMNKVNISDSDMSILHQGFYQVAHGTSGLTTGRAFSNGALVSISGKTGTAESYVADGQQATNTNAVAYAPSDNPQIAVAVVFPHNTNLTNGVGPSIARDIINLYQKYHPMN
For assay [7], the target named is T2, Penicillin-binding protein 2B. The assay can be described thus: Inhibition of Bocillin FL binding to PBP2b PBP2b 443SSNA mutant in Streptococcus pneumoniae isolate 8009 harboring E333G, N470K, E476G, T489S, E506D, and N538D mutant genes.
For assay [8], the target named is Penicillin-binding protein 2B (Streptococcus pneumoniae (strain ATCC BAA-255 / R6), UniProt P0A3M6, A619G). Put plainly: Inhibition of Bocillin FL binding to PBP2b in Streptococcus pneumoniae isolate 8819 harboring E333G, I361L, E369D, S412P, N422Y, T426K, Q427L, Q438E, L455I, S473T, E476G, S480A, T489A, N538D, D561E, Q564K, and D625G mutant genes.
Chain of Penicillin-binding protein 2B (Streptococcus pneumoniae (strain ATCC BAA-255 / R6), UniProt P0A3M6, A619G) (P0A3M6 whole entry A619G): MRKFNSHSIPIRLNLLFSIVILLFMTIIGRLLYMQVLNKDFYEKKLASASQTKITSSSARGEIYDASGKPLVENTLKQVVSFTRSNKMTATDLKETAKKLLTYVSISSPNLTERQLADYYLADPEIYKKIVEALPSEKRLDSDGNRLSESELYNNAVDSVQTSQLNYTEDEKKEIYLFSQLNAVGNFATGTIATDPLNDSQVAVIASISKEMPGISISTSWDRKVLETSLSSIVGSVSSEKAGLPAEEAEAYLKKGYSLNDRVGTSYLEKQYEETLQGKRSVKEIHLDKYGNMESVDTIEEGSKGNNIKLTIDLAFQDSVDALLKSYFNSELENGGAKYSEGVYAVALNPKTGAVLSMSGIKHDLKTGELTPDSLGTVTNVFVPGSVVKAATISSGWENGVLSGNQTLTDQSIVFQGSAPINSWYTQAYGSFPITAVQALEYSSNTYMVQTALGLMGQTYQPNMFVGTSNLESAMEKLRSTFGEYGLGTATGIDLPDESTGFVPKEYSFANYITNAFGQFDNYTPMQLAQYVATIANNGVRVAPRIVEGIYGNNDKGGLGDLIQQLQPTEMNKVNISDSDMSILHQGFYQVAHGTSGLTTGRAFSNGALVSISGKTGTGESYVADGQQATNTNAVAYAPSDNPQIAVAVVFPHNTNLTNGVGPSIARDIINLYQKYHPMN
Assay [9] deals with Streptococcus pneumoniae. The assay can be described thus: Antimicrobial activity against laboratory-derived Streptococcus pneumoniae isolate R6 by broth microdilution method. The format is functional.
Assay [10] deals with Streptococcus pneumoniae. Put plainly: Antimicrobial activity against laboratory-derived Streptococcus pneumoniae isolate R6 harboring Thr446Ala mutant gene by broth microdilution method. It is filed as functional.
The test system of assay [11] is Streptococcus pneumoniae. The assay can be described thus: Antimicrobial activity against laboratory-derived Streptococcus pneumoniae isolate R6 harboring Thr446Ala/Ala-619-Gly mutant gene by broth microdilution method. The format is functional.
In assay [12] the target is T1, Penicillin-binding protein 2B. Put plainly: Inhibition of Bocillin FL binding to PBP2b in laboratory-derived Streptococcus pneumoniae isolate R6.
The target of assay [13] is T2, Penicillin-binding protein 2B. Put plainly: Inhibition of Bocillin FL binding to PBP2b Thr446Ala mutant in laboratory-derived Streptococcus pneumoniae isolate R6.
Assay [14] concerns the target Penicillin-binding protein 2B (Streptococcus pneumoniae (strain ATCC BAA-255 / R6), UniProt P0A3M6, A619G/T446A). Put plainly: Inhibition of Bocillin FL binding to PBP2b Thr446Ala/Ala-619-Gly mutant in laboratory-derived Streptococcus pneumoniae isolate R6.

Each structure is given as a SMILES string. In brackets after ≈: the same amount, converted by molar mass.

Chain of Penicillin-binding protein 2B (Streptococcus pneumoniae (strain ATCC BAA-255 / R6), UniProt P0A3M6, A619G/T446A) (P0A3M6 whole entry T446A/A619G): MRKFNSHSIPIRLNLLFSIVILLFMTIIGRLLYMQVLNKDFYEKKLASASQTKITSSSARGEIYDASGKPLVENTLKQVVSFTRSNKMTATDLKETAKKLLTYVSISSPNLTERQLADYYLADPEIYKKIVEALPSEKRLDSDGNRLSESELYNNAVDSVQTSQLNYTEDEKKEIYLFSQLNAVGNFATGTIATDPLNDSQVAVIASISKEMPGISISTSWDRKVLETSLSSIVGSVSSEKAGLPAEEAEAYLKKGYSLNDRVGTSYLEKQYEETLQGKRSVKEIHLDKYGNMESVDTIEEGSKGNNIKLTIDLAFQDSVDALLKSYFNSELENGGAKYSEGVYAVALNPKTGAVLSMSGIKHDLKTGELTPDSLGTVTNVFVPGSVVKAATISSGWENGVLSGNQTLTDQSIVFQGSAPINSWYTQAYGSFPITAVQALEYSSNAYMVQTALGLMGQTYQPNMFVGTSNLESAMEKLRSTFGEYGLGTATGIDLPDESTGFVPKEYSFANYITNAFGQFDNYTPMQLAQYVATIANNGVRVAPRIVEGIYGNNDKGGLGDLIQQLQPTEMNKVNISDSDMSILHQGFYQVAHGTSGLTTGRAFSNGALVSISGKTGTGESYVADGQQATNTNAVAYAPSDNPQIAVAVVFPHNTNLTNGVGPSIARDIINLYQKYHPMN

As usually defined, the MIC is the lowest concentration that inhibits growth of the organism. Higher therefore signals a need for much substance. Usually IC50 stands for the concentration needed to halve the response being measured. A lower IC50 goes with greater potency in that assay. As for `Nc1nc(/C(=N/O)C(=O)N[C@@H]2C(=O)N3C(C(=O)O)=C(/C=C4\CCN([C@@H]5CCNC5)C4=O)CS[C@H]23)ns1` [CEFTOBIPROLE], the MIC is 0.008 µg/mL (≈ 0.015 µM) in the assay on Streptococcus pneumoniae [1]; 0.008 µg/mL (≈ 0.015 µM) in the assay with Streptococcus pneumoniae [2]; 0.015 µg/mL (≈ 0.0281 µM) against Streptococcus pneumoniae [3]; 1 µg/mL (≈ 1.87 µM) against Streptococcus pneumoniae [4]; 0.002 µg/mL (≈ 0.00374 µM) with Streptococcus pneumoniae [9]; 0.002 µg/mL (≈ 0.00374 µM) against Streptococcus pneumoniae [10]. In the assay with Streptococcus pneumoniae [11], this molecule showed an MIC of 0.004 µg/mL (≈ 0.00748 µM). Moreover, the IC50 is 112 nM in assay [5]; 2240 nM in assay [6]; 1680 nM in [7]; more than 15000 nM in [8]; 112 nM in assay [12]; 1310 nM in assay [13]. In assay [14], this molecule gave an IC50 of 3180 nM.
Consider `CO/N=C(\C(=O)N[C@@H]1C(=O)N2C(C(=O)O)=C(CSc3nc(=O)c(O)nn3C)CS[C@H]12)c1csc(N)n1` [CEFTRIAXONE], for which the MIC stood at 0.03 µg/mL (≈ 0.0541 µM) against Streptococcus pneumoniae [1]; 0.06 µg/mL (≈ 0.108 µM) against Streptococcus pneumoniae [2]; 0.06 µg/mL (≈ 0.108 µM) in the assay with Streptococcus pneumoniae [3]; 8 µg/mL (≈ 14.4 µM) in the assay on Streptococcus pneumoniae [4]; 0.008 µg/mL (≈ 0.0144 µM) against Streptococcus pneumoniae [9]; 0.008 µg/mL (≈ 0.0144 µM) against Streptococcus pneumoniae [10]. This molecule also gave an MIC in the assay on Streptococcus pneumoniae [11] of 0.015 µg/mL (≈ 0.027 µM). Also, the IC50 in [5], in assay [6], in assay [7], in assay [8] and in assay [12] was more than 14400 nM throughout.
In the case of `CC1(C)S[C@@H]2[C@H](NC(=O)Cc3ccccc3)C(=O)N2[C@H]1C(=O)O` [PENICILLIN G], the minimal inhibitory concentration (MIC) with Streptococcus pneumoniae [1] is not above 0.015 µg/mL; with Streptococcus pneumoniae [2], 0.12 µg/mL (≈ 0.359 µM); in the assay on Streptococcus pneumoniae [3], 0.12 µg/mL (≈ 0.359 µM); in the assay with Streptococcus pneumoniae [4], 8 µg/mL (≈ 23.9 µM); with Streptococcus pneumoniae [9], 0.015 µg/mL (≈ 0.0449 µM); against Streptococcus pneumoniae [10], 0.015 µg/mL (≈ 0.0449 µM). Besides, the MIC in the assay on Streptococcus pneumoniae [11] was 0.03 µg/mL (≈ 0.0897 µM). Further, the IC50 was 23.9 nM in assay [5]; 7480 nM in assay [6]; 7480 nM in assay [7]; more than 23900 nM in [8]; 449 nM in [12]; 2390 nM in assay [13]. Besides, in [14], the IC50 is 5380 nM.

Values taken from ChEMBL document CHEMBL1671743, “Affinity of ceftobiprole for penicillin-binding protein 2b in Streptococcus pneumoniae strains with various susceptibilities to penicillin” (Antimicrob Agents Chemother, 2010).
